# “And” between values parts separate entries of the source, which are not always exact repeats. Identical values can stand only once.
# Legend:
# Type 2 Phosphodiesterase = molecular target: T1, Type 2 Phosphodiesterase (Cavia porcellus, UniProt A0A286XUV5); assay: PDE inhibition, Type 2 phosphodiesterase, cardiac muscle; assay type: biochemical; parameters: inhibition: dose or concentration left out as unconfirmed; conditions: for inhibition at 100 µM: 1 × 10^-4 M, read-out: % Inhibition of 3H-cGMP Hydrolysis, Type 2 Phosphodiesterase; for inhibition: read-out: % Inhibition of 3H-cAMP Hydrolysis, Type 2 Phosphodiesterase
# T1 construct: from tissue
# T1 sequence (A0A286XUV5 22-936): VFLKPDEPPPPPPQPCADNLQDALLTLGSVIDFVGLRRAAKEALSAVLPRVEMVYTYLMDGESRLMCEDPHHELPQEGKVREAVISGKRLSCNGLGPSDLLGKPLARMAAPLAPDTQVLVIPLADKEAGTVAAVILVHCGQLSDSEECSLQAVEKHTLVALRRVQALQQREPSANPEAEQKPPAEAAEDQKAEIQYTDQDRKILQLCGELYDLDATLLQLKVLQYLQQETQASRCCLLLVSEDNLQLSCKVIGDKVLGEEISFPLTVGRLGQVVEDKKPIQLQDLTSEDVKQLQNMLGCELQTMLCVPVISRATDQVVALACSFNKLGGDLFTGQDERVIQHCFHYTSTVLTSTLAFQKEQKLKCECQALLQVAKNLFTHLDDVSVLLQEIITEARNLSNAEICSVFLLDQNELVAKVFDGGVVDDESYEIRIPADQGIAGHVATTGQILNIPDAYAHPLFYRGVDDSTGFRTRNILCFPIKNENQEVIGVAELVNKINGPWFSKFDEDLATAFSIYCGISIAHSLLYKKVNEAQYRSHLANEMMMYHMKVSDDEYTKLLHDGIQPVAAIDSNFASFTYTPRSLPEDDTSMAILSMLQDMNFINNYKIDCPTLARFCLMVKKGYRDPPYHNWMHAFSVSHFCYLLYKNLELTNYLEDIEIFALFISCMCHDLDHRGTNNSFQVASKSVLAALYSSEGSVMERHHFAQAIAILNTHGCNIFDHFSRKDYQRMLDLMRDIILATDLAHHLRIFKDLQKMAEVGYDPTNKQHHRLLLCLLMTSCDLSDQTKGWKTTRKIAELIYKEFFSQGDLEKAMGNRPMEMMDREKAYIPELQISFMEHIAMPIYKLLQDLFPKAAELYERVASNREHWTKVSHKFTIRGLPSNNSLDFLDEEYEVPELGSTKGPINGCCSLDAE
# Protocol: (§1) Phosphodiesterase activity was measured as described previously (Weishaar, P. E., Quade, M., Boyd, D., Schenden, J., Mark, S. S., Kaplan, H. R., Drug Devel. Res., 3:517-534, 1983), in a reaction medium containing 40 mM Tris-HCl (pH 8.0), 5 mM MgCl and 4 mM 2-mercaptoethanol. Unless otherwise noted, the concentration of substrate (^3 H-cyclic AMP or ^3 H-cyclic GMP) was 1.0 μM. All agents examined were dissolved in dimethyl sulfoxide (DMSO). Final concentration of the reaction medium was either 2.5% (cardiac and platelet studies) or 1.25% (smooth muscle studies). This concentration of DMSO produced an approximately 10% inhibition of enzyme activity. […] Three to four such concentration-response curves were generated for each agent, generally using different enzyme preparations for each concentration-response.
# Type 3 Phosphodiesterase = assay: PDE inhibition, Type 3 phosphodiesterase, cardiac muscle; assay type: biochemical; conditions: 1 × 10^-4 M
# Protocol: as §1
# Type 1 Phosphodiesterase = assay: PDE inhibition, Type 1 phosphodiesterase, cardiac muscle; assay type: biochemical; conditions: 1 × 10^-4 M
# Protocol: as §1
# histamine = assay: Bronchodilator test (BCA), histamine spasmogen, guinea pigs; assay type: in vivo, Hartley Guinea Pigs; parameters: key: Active; conditions: 50 mg/kg
# Excerpt: The compounds of this invention may be determined to have antiallergy activity by a standard laboratory means employing the bronchodilator test (BCA) readily accepted as a standard for antiallergy activity, which is described in Siegmund, H. O., et al (J. Pharmacol. and Exptl., 90:254, 1949 and Herxheimer, H., J. Physiol., 117: 252-255, 1952). Thus, antiallergy activity was found for compounds of this invention by this BCA test using Hartley Guinea Pigs by the procedures as described below.
# Naive (BCA) pigs are exposed to spasmogen for ten minutes by means of a De Vilbiss number 40 nebulizer positioned at the back of a closed, six unit plexiglas chamger (19×12.5×9"). Air flow is adjusted to give a pressure of 10 lbs/in; six animals per treatment are averaged, and the mean value for compound treated animals is compared to that for animals treated with vehicle. […]
# The spasmogen may be acetylcholine chloride (0.3%), histamine (0.1%), methacholine chloride (Mecholyl) (0.1%) or serotonin creatinine sulfate. Each nebulizer dispenses 0.2 cc/minute.
# [1] = molecular target: T2, adenosine receptors (designated A1) (Rattus norvegicus, UniProt P25099); assay: Adenosine receptor binding - A1 receptor affinity (RBA1), [3H]-CHA displacement, rat whole brain minus cerebellum and brainstem membranes; parameters: species or system rat (male Long Evans); conditions: 1.0 nM [3H]-CHA, 25° C., pH 7.7; repeat tests (Test 1-4) one line each; read-out: RBA-1 (IC50, adenosine A1 affinity)
# T2 construct: Whole brain minus cerebellum and brainstem from male Long Evans rats (150-200 g); from tissue; host or cells: whole brain minus cerebellum and brainstem, male Long Evans rats, membranes
# T2 sequence (P25099 1-326): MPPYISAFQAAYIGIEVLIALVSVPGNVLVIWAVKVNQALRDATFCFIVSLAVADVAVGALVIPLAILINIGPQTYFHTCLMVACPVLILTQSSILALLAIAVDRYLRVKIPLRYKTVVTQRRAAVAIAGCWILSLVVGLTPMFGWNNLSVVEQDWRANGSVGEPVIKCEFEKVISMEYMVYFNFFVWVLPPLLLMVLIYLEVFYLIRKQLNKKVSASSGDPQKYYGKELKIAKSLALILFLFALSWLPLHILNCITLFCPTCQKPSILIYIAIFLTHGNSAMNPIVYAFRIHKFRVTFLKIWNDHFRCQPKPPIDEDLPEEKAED
# Protocol: ADENOSINE RECEPTOR BINDING-A1 RECEPTOR AFFINITY (RBA1)
# Whole brain minus cerebellum and brainstem from male Long Evans rats (150-200 g) was homogenized in 30 volumes of ice-cold 0.05M Tris-HCl buffer pH 7.7 using a Brinkman Polytron PT-10, (setting number 6 for 20 seconds) and centrifuged for ten minutes at 20,000×g (Sorvall RC-2), 4° C. The supernatant was discarded, and the pellet was resuspended and centrifuged as before. The pellet was resuspended in 20 ml Tris-HCl buffer containing two International Units/ml of adenosine deaminase (Sigma type III from calf intestinal mucosa), incubated at 37° C. for 30 minutes, then subsequently at 0° C. for ten minutes. The homogenate was again centrifuged, and the final pellet was resuspended in ice-cold 0.05M Tris-HCl buffer pH 7.7 to a concentration of 20 mg/ml original wet tissue weight and used immediately.
# Tissue homogenate (10 mg/ml) was incubated in 0.05M Tris-HCl buffer pH 7.7 containing 1.0 nM [^3 H]-N^6 -cyclohexyladenosine (^3 H]-CHA) with or without test agents in triplicate for one hour at 25° C. Incubation volume was 2 ml. Unbound [^3 H]-CHA was separated by rapid filtration under reduced pressure through Whatman glass fiber (GF/B) filters. The filters were rinsed three times with 5 ml of ice cold 0.05M Tris-HCl buffer pH 7.7. The radio-labeled ligand retained on the filter was measured by liquid scintillation spectrophotometry after shaking the filters for one hour or longer on a mechanical shaker in 10 ml of Beckman Ready-Solv HP scintillation cocktail.
# Nonspecific binding was defined as the binding which occurred in the presence of 1 mM theophylline. The concentration of test agent which inhibited 50% of the specific binding (IC50) was determined by nonlinear computer curve fit. The Scatchard plot was calculated by linear regression of the line obtained by plotting the amount of radioligand bound ([…]) versus [bound radioligand/free radioligand].Since the amount of radioligand bound was a small fraction of the total amount added, free radioligand was defined as the concentration (nM) of radioligand added to the incubation mixture. The Hill coefficient was calculated by linear regression of the line obtained by plotting the log of the bound radioligand vs the log of the [bound radioligand/(Bmax -bound radioligand)]. The maximal number of binding sites (Bmax) was calculated from the Scatchard plot.
inhibition at 100 µM (Type 2 Phosphodiesterase) [%],inhibition (Type 2 Phosphodiesterase) [%],"% Inhibition of 3H-cAMP Hydrolysis, Type 3 Phosphodiesterase (Type 3 Phosphodiesterase)","% Inhibition of 3H-cAMP Hydrolysis, Type 1 Phosphodiesterase (Type 1 Phosphodiesterase)","% Inhibition of 3H-cGMP Hydrolysis, Type 1 Phosphodiesterase (Type 1 Phosphodiesterase)",IC50 [1],SMILES,"BCA Results, Ratings (histamine)"
36 to 55,36 to 55,A (56-100% inhibition at 1 × 10^-5 M),B (36-55% inhibition at 1 × 10^-5 M),B (36-55% inhibition at 1 × 10^-5 M),5880 nM,"CCn1nc(C)c2[nH]c(=O)[nH]c(=O)c21 [Example 3, 1-Ethyl-3-methyl-1H-pyrazolo[4,3-d]pyrimidine-5,7(4H,6H)dione]",A
56 to 100,56 to 100,A (56-100% inhibition at 1 × 10^-5 M),A (56-100% inhibition at 1 × 10^-5 M),A (56-100% inhibition at 1 × 10^-5 M),1040 nM and 1520 nM,"CCn1c(=O)[nH]c2c(C)nn(CC)c2c1=O [Example 4, 1-Ethyl-3-methyl-6ethyl-1H-pyrazolo[4,3-d]pyrimidine-5,7-[4H,6H]dione]",A
56 to 100,56 to 100,B (36-55% inhibition at 1 × 10^-5 M),A (56-100% inhibition at 1 × 10^-5 M),A (56-100% inhibition at 1 × 10^-5 M),458 nM and 992 nM and 378 nM and 401 nM,"CCCn1c(=O)[nH]c2c(C)nn(CC)c2c1=O [Example 5, 1H-1-Ethyl-3-methyl-6-propyl-pyrazolo[4,3-d]pyrimidine-5,7-[4H,6H]dione]",A
56 to 100,36 to 55,A (56-100% inhibition at 1 × 10^-5 M),A (56-100% inhibition at 1 × 10^-5 M),A (56-100% inhibition at 1 × 10^-5 M),2530 nM,"CCn1nc(C)c2[nH]c(=O)n(C)c(=O)c21 [Example 6, 1-Ethyl-3,6-dimethyl-1H-pyrazolo-[4,3-d]pyrimidine-5,7-[4H,6H]dione]",A
36 to 55,36 to 55,C (21-35% inhibition at 1 × 10^-5 M),C (21-35% inhibition at 1 × 10^-5 M),N (0-20% inhibition at 1 × 10^-5 M),–,"Cc1nn(C)c2c(=O)n(C)c(=O)n(C)c12 [Example 7, 1,3,4,6-tetramethyl-1H-pyrazolo[4,3-d]pyrimidine-5,7-[4H,6H]dione]",A
56 to 100,56 to 100,A (56-100% inhibition at 1 × 10^-5 M),B (36-55% inhibition at 1 × 10^-5 M),B (36-55% inhibition at 1 × 10^-5 M),–,"CCn1c(=O)c2c(c(C)nn2C)n(CC)c1=O [Example 8, 4,6-Diethyl-1,3-dimethyl-1H-pyrazolo[4,3-d]pyrimidine-5,7-[4H,6H]dione]",A
56 to 100,56 to 100,A (56-100% inhibition at 1 × 10^-5 M),A (56-100% inhibition at 1 × 10^-5 M),A (56-100% inhibition at 1 × 10^-5 M),–,"CCCn1c(=O)c2c(c(C)nn2C)n(CCC)c1=O [Example 9, 1,3-dimethyl-4,6-dipropyl-1H-pyra-3-zolo[4,3-d]pyrimidine-5,7-[4H,6H]dione]",–

# Source: patent US4663326A, “Pyrazolo[4,3-d]pyrimidine-5,7-(4H,6H)dione or -5-thione-7-one analogs” (Warner-Lambert Company, priority 1985, dated 1987)
